Reference: PMC8708390, “Fatty Acid Modification of the Anticancer Peptide LVTX-9 to Enhance Its Cytotoxicity against Malignant Melanoma Cells” (Toxins, 2021)
Where no end group is shown, it is not given here.

Assays:
[1] = system: B16-F10 cells; test: Colony formation assay; assay type: cell-based, mouse; settings: 10 μM, 7 days, crystal violet, mean ± SD, n = 3, control group 51 ± 12.0
Experimental: To detect the proliferation of B16-F10 cells treated with LVTX-9 and LVTX-9-C18 at low concentrations, digested cells were counted using a Cellometer K2 and seeded into a 12-well plate with approximately 100 cells per well. After 36 h, cells were treated with LVTX-9 (10 μM) and LVTX-9-C18 (1 μM), then incubated for 7 days at 37 °C in a humidified 5% CO2 atmosphere. Visible colonies were stained with 0.5% crystal violet and photographically recorded. The colony formation rates were calculated, and curves were manufactured by GraphPad prism 5.0.

[2] = system: B16-F10 cells; test: Trypan blue staining; assay type: cell-based, mouse; settings: 50 μM, 24 h, 0.04% trypan blue 4 min
Experimental: B16-F10 cells were seeded into a 48-well plate (2 × 10^3 cells/well) for 24 h and treated with LVTX-9 (50 μM) and LVTX-9-C18 (5 μM) for 24 h. The cells were washed with PBS gently and stained with 0.04% Trypan blue for 4 min. Dead cells were stained blue.

[3] = Dynamic light scattering (hydrodynamic size, PDI, zeta potential); assay type: physicochemical; settings: 100 µM in ultrapure water, 25 °C, repeated three times
Experimental: Dynamic light scattering (DLS) of Zetasizer Nano ZSP (Malvern Instruments, Malvern, UK) apparatus was used to determine the hydrodynamic size and zeta potential of LVTX-9 and LVTX-9-C18. The peptides concentrations were diluted to 100 µM with ultrapure water with a final volume of 1 mL. The procedure ran at 25 °C, with each experiment repeated three times. The secondary structures of LVTX-9 and LVTX-9-C18 were determined to be in line with the previous protocol. The peptide concentrations were then diluted to 100 µM with ultrapure water and 100 mM of SDS was added in a final volume of 250 μL. The procedure was carried out at 25 °C. CD spectra were recorded between 180 nm and 280 nm on a Jasco J-815 CD spectrometer.

[4] = system: B16-F10 tumor spheroids; test: Toxicity in 3D tumor spheroids; assay type: cell-based, mouse; settings: 50 or 25 μM, RPMI-1640 with 10% serum, 3 days
Experimental: To further study the toxicity of LVTX-9 and LVTX-9-C18 in vitro, B16-F10 tumor spheroids, as 3D tumor models, were cultured according to protocols in the literature. Briefly, B16-F10 cells were seeded into an ultra-low attachment, 96-well, round-bottom plate (Corning) and cultured at 37 °C for 3–4 days. Then, the B16-F10 tumor spheroids were treated with 50 or 25 μM of LVTX-9 and 20 or 10 μM of LVTX-9-C18 in the RPMI-1640 supplied with 10% serum for 3 days. Subsequently, images were taken on days 0 and 3, and the cell viability was measured using a CellTiter-Glo 3D Cell Viability Assay (G9683).

For “ASIGALIQKAIALIKAKAA-NH2 (C-terminus assumed) [LVTX-9]”, the “colony number at 10 μM” value [1] was 58 ± 11.4, the “trypan blue staining at 50 μM” value [2] was “almost unstained” and the “PDI (hydrodynamic size, DLS)” value [3] was 0.65 ± 0.0481. The “growth of B16-F10 tumor spheroids at 50 or 25 μM” value [4] was “gradually grew”.
